Experimental findings from PubChem BioAssay AID256 (DTP/NCI, 2004) are described below.

Values joined by “and” are separate entries in the source; they are usually repeats but may differ in a detail not shown here. Identical values can stand only once. Inconclusive results and toxic doses are left out.

The test deals with CD2F1 mice, L1210 leukemia ip, survival T/C. The experiment in a line: NCI In Vivo Anticancer Drug Screen. Data for tumor model L1210 Leukemia (intraperitoneal) in CD2F1 (CDF1) mice. The following applies: higher = longer survival. The essentials:
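Each value reflects a quotient of treated over vehicle control outcomes in mice with a transplanted tumor.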

The mark [1] stands for this setting: endpoint: mean survival time, dose: 100.0 mg/kg/injection, schedule: Q04DX003 (ip), vehicle: saline with Tween-80.
The mark [2] stands for this setting: endpoint: mean survival time, dose: 200.0 mg/kg/injection, schedule: Q04DX003 (ip), vehicle: saline with Tween-80.
[3] abbreviates: endpoint: mean survival time, dose: 400.0 mg/kg/injection, schedule: Q04DX003 (ip), vehicle: saline with Tween-80.
The mark [4] stands for this setting: endpoint: mean survival time, dose: 100.0 mg/kg/injection, schedule: Q04DX003 (ip), vehicle: Klucel (hydroxypropylcellulose) (HPC).
The mark [5] stands for this setting: endpoint: mean survival time, dose: 200.0 mg/kg/injection, schedule: Q04DX003 (ip), vehicle: Klucel (hydroxypropylcellulose) (HPC).
Where [6] appears, read: endpoint: mean survival time, dose: 400.0 mg/kg/injection, schedule: Q04DX003 (ip), vehicle: Klucel (hydroxypropylcellulose) (HPC).
The mark [7] stands for this setting: endpoint: mean survival time, dose: 100.0 mg/kg/injection, schedule: Q01DX001 (ip), vehicle: saline with Tween-80.
The mark [8] stands for this setting: endpoint: mean survival time, dose: 200.0 mg/kg/injection, schedule: Q01DX001 (ip), vehicle: saline with Tween-80.
The mark [9] stands for this setting: endpoint: mean survival time, dose: 400.0 mg/kg/injection, schedule: Q01DX001 (ip), vehicle: saline with Tween-80.

With `CCc1ccc(OC2OC(CO)C(OC3OC(CO)C(O)C(O)C3O)C(O)C2O)cc1` (configuration not stated), the T/C is 92 % of control (endpoint: mean survival time, dose: 75.0 mg/kg/injection, schedule: Q01DX001 (ip), vehicle: steriod suspending solution); 92 % of control (endpoint: mean survival time, dose: 150.0 mg/kg/injection, schedule: Q01DX001 (ip), vehicle: steriod suspending solution); 95 % of control (endpoint: mean survival time, dose: 300.0 mg/kg/injection, schedule: Q01DX001 (ip), vehicle: steriod suspending solution).
Turning to `CNCCN1CCC(Cc2ccccc2)CC1`, the T/C was 102 % of control (endpoint: mean survival time, dose: 50.0 mg/kg/injection, schedule: Q01DX009 (ip), vehicle: saline); 100 % of control (endpoint: mean survival time, dose: 100.0 mg/kg/injection, schedule: Q01DX009 (ip), vehicle: saline); 106 % of control (endpoint: mean survival time, dose: 200.0 mg/kg/injection, schedule: Q01DX009 (ip), vehicle: saline).
Consider `CC1(C(N)=O)OC12CCCCC2` (configuration not stated), for which the T/C under setting [1] is 95 % of control, the T/C under setting [2] was 97 % of control and the T/C under setting [3] was 97 % of control.
In the case of `CS(=O)(=O)OC(OS(C)(=O)=O)(OS(C)(=O)=O)OS(C)(=O)=O`, the T/C under setting [1] is 111 % of control, the T/C under setting [2] was 105 % of control and the T/C under setting [3] was 105 % of control.
Regarding `CCOC(=O)/C(C)=C/C(O)CO` (configuration not stated), the T/C (endpoint: mean survival time, dose: 100.0 mg/kg/injection, schedule: Q01DX009 (ip), vehicle: saline sonified) was 96 % of control; the T/C under setting [1] is 105 % of control; the T/C (endpoint: mean survival time, dose: 200.0 mg/kg/injection, schedule: Q01DX009 (ip), vehicle: saline sonified) is 95 % of control; the T/C under setting [2] was 98 % of control; the T/C under setting [3] was 96 % of control.
Regarding `COc1c(C)ccc([N+](=O)[O-])c1OC`, the T/C was 97 % of control (endpoint: mean survival time, dose: 100.0 mg/kg/injection, schedule: Q01DX009 (ip), vehicle: saline with Tween-80); 98 % of control (endpoint: mean survival time, dose: 200.0 mg/kg/injection, schedule: Q01DX009 (ip), vehicle: saline with Tween-80); 98 % of control (endpoint: mean survival time, dose: 400.0 mg/kg/injection, schedule: Q01DX009 (ip), vehicle: saline with Tween-80).
For `CCC1CN2CCC1CC2C(O)c1cc[n+]([O-])c2ccc(OC)cc12` (configuration not stated), the T/C is, setting by setting: under setting [4], 98 % of control; under setting [5], 102 % of control; under setting [6], 102 % of control.
On to `C1=[N+](c2ccccc2)CCN1c1ccccc1`, for which the T/C (endpoint: mean survival time, dose: 75.0 mg/kg/injection, schedule: Q01DX001 (ip), vehicle: saline) was 95 % of control and the T/C (endpoint: mean survival time, dose: 150.0 mg/kg/injection, schedule: Q01DX001 (ip), vehicle: saline) was 98 % of control.
In the case of `C=CCCCCCCCCC(=O)NCc1ccccn1`, the T/C reads like this: under setting [7], 93 % of control; under setting [8], 102 % of control; under setting [9], 91 % of control.
For the molecule `C=C1C(C)C2C(Cc3ccccc3)NC(=O)C23C(OC(C)=O)C=CC(C)(O)C(=O)C(C)C/C=C/C3C1O` (configuration not stated), the T/C reads like this: (endpoint: mean survival time, dose: 0.63 mg/kg/injection, schedule: Q01DX009 (ip), vehicle: Klucel (hydroxypropylcellulose) (HPC)) 101 % of control; (endpoint: mean survival time, dose: 1.25 mg/kg/injection, schedule: Q01DX009 (ip), vehicle: Klucel (hydroxypropylcellulose) (HPC)) 101 % of control; (endpoint: mean survival time, dose: 2.5 mg/kg/injection, schedule: Q01DX009 (ip), vehicle: Klucel (hydroxypropylcellulose) (HPC)) 95 % of control; (endpoint: mean survival time, dose: 5.0 mg/kg/injection, schedule: Q01DX009 (ip), vehicle: Klucel (hydroxypropylcellulose) (HPC)) 98 % of control.
With `COc1ccc(NC(=O)Nc2ccc(Cl)cc2OC)cc1`, the T/C was 93 % of control (endpoint: mean survival time, dose: 200.0 mg/kg/injection, schedule: Q04DX002 (ip), vehicle: saline with Tween-80) and 90 % of control (endpoint: mean survival time, dose: 400.0 mg/kg/injection, schedule: Q04DX002 (ip), vehicle: saline with Tween-80).
On to `CC[C@@]1(OC(=O)CCC(=O)O)C(=O)OCc2c1cc1n(c2=O)Cc2cc3ccccc3nc2-1`, for which the T/C was 118 % of control (endpoint: median survival time, dose: 5.86 mg/kg/injection, schedule: Q04DX002 (ip), vehicle: water); 154 % of control (endpoint: median survival time, dose: 8.79 mg/kg/injection, schedule: Q04HX004 (iv), vehicle: water); 120 % of control (endpoint: median survival time, dose: 11.73 mg/kg/injection, schedule: Q04DX002 (ip), vehicle: water); 167 % of control and 180 % of control (endpoint: median survival time, dose: 17.59 mg/kg/injection, schedule: Q04HX004 (iv), vehicle: water); 197 % of control and 228 % of control (endpoint: median survival time, dose: 35.18 mg/kg/injection, schedule: Q04HX004 (iv), vehicle: water); 192 % of control and 200 % of control (endpoint: median survival time, dose: 46.9 mg/kg/injection, schedule: Q04DX002 (ip), vehicle: water). For the same molecule, the T/C (endpoint: median survival time, dose: 93.8 mg/kg/injection, schedule: Q04DX002 (ip), vehicle: water) was 231 % of control.
Take `C=C(N=[N+]=[N-])c1ccccc1`: the T/C was 110 % of control (endpoint: mean survival time, dose: 12.5 mg/kg/injection, schedule: Q01DX009 (ip), vehicle: other); 100 % of control (endpoint: mean survival time, dose: 25.0 mg/kg/injection, schedule: Q01DX009 (ip), vehicle: other); 100 % of control (endpoint: mean survival time, dose: 50.0 mg/kg/injection, schedule: Q01DX009 (ip), vehicle: other); 102 % of control (endpoint: mean survival time, dose: 100.0 mg/kg/injection, schedule: Q01DX009 (ip), vehicle: other).
Turning to `O=C(N/N=C/c1ccccc1)c1ccc(Cl)cc1`, the T/C (endpoint: mean survival time, dose: 100.0 mg/kg/injection, schedule: Q01DX009 (ip), vehicle: Klucel (hydroxypropylcellulose) (HPC)) is 94 % of control; the T/C (endpoint: mean survival time, dose: 200.0 mg/kg/injection, schedule: Q01DX009 (ip), vehicle: Klucel (hydroxypropylcellulose) (HPC)) is 97 % of control; the T/C (endpoint: mean survival time, dose: 400.0 mg/kg/injection, schedule: Q01DX009 (ip), vehicle: Klucel (hydroxypropylcellulose) (HPC)) was 101 % of control.
Consider `[CH3][Sb]([CH3])([CH3])([O]C(=O)CBr)[O]C(=O)CBr`, for which the T/C (endpoint: mean survival time, dose: 12.5 mg/kg/injection, schedule: Q01DX009 (ip), vehicle: saline with Tween-80) was 102 % of control; the T/C (endpoint: mean survival time, dose: 25.0 mg/kg/injection, schedule: Q01DX009 (ip), vehicle: saline with Tween-80) was 100 % of control; the T/C (endpoint: mean survival time, dose: 50.0 mg/kg/injection, schedule: Q01DX009 (ip), vehicle: saline with Tween-80) was 96 % of control.
For `COc1nc(C(Cl)(Cl)Cl)c(Cl)c(OC)c1Cl`, the T/C by setting is: (endpoint: median survival time, dose: 12.5 mg/kg/injection, schedule: Q01DX009 (ip), vehicle: Klucel (hydroxypropylcellulose) (HPC)) 108 % of control; (endpoint: median survival time, dose: 25.0 mg/kg/injection, schedule: Q01DX009 (ip), vehicle: Klucel (hydroxypropylcellulose) (HPC)) 98 % of control and 103 % of control; (endpoint: median survival time, dose: 50.0 mg/kg/injection, schedule: Q01DX005 (ip), vehicle: Klucel (hydroxypropylcellulose) (HPC)) 105 % of control and 112 % of control; (endpoint: median survival time, dose: 50.0 mg/kg/injection, schedule: Q01DX009 (ip), vehicle: Klucel (hydroxypropylcellulose) (HPC)) 106 % of control and 107 % of control; (endpoint: median survival time, dose: 67.0 mg/kg/injection, schedule: Q01DX005 (ip), vehicle: Klucel (hydroxypropylcellulose) (HPC)) 119 % of control and 102 % of control; (endpoint: median survival time, dose: 90.0 mg/kg/injection, schedule: Q01DX005 (ip), vehicle: Klucel (hydroxypropylcellulose) (HPC)) 105 % of control. For the same molecule, the T/C was 113 % of control (endpoint: median survival time, dose: 120.0 mg/kg/injection, schedule: Q01DX005 (ip), vehicle: Klucel (hydroxypropylcellulose) (HPC)); 115 % of control and 120 % of control (endpoint: median survival time, dose: 200.0 mg/kg/injection, schedule: Q01DX009 (ip), vehicle: Klucel (hydroxypropylcellulose) (HPC)).
As to `S=c1sc2ccccc2n1CN1CCCCC1`, the T/C under setting [7] is 100 % of control, the T/C under setting [8] was 100 % of control and the T/C under setting [9] is 108 % of control.
In the case of `OCc1ccc2c(n1)COC(c1ccccc1)O2` (configuration not stated), the T/C was 102 % of control (endpoint: mean survival time, dose: 100.0 mg/kg/injection, schedule: Q04DX002 (ip), vehicle: Klucel (hydroxypropylcellulose) (HPC)); 94 % of control (endpoint: mean survival time, dose: 200.0 mg/kg/injection, schedule: Q04DX002 (ip), vehicle: Klucel (hydroxypropylcellulose) (HPC)); 94 % of control (endpoint: mean survival time, dose: 400.0 mg/kg/injection, schedule: Q04DX002 (ip), vehicle: Klucel (hydroxypropylcellulose) (HPC)).
In the case of `S=C(SN1CCCCC1)N1CCCCC1`, the T/C is 96 % of control (endpoint: mean survival time, dose: 50.0 mg/kg/injection, schedule: Q04DX003 (ip), vehicle: other); 96 % of control (endpoint: mean survival time, dose: 100.0 mg/kg/injection, schedule: Q04DX003 (ip), vehicle: other); 91 % of control (endpoint: mean survival time, dose: 200.0 mg/kg/injection, schedule: Q04DX003 (ip), vehicle: other).
`C1CCC(NC2=NCCO2)CC1`: the T/C under setting [1] is 90 % of control.
Consider `O=C(O)CCCCCCCCC#CC#CCCCc1ccccc1`, for which the T/C by setting is: under setting [4], 95 % of control; under setting [5], 95 % of control; under setting [6], 97 % of control.
